Laboratory results as given in patent US20090304818A1, “METHOD OF TREATMENT” (priority 2005, published 2009).

Tested on: sepsis in conscious sheep
Test: Ang II infusion in E. coli-induced sepsis in conscious sheep (FIG. 1)
Format: in vivo
Details: sepsis + Ang II infusion period, four conscious sheep
Experimental: Seven female Merino ewes weighing between 34.2 kg and 47.3 kg were procured for chronic instrumentation. The sheep were held and studied in metabolic cages, with free access to food and water. The animals underwent two separate operative procedures. For all procedures, anaesthesia was induced with sodium thiopentone (15 mg/kg) for endotracheal tube placement (cuff size 10). Maintenance anaesthesia was by means of oxygen/air/isoflurane (1 to 2%). Fractional inspired oxygen was altered to maintain PaO2 at approximately 100 mm Hg, and ventilation was controlled to maintain PaCO2 at approximately 40 mm Hg.
First, a left-sided thoracotomy was performed. The pericardium was opened, and a transit time flow probe (20 mm, Transonics Systems, Ithaca, N.Y.) was placed around the pulmonary artery to measure cardiac output. After two weeks recovery, a left-sided flank incision was made and a retroperitoneal dissection was performed to expose the left renal artery. […]
Analog signals of mean arterial pressure (MAP), central venous pressure (CVP), cardiac output (CO), and renal blood flow (RBF) were collected using a PC using a customized data acquisition system (Labview National Instruments). Data were recorded at 100 Hz for 10 s at every minute throughout the experimental protocol. Total peripheral conductance (TPC) (cardiac output/mean arterial pressure) and renal vascular conductance (RVC) (renal blood flow/mean arterial pressure) were calculated.
During the experimental periods MAP, CVP, CO, RBF and heart rate were measured continuously. Following a 12-hour baseline period, sheep were monitored for a 48 hour control period. After 7 days, sheep were monitored for a 2nd baseline period, followed by induction of sepsis by intravenous administration of a bolus of live E. coli (3.9×10^9 colony forming units in 15 mL saline), followed by a continuous infusion ([…] at 5 mL/h) for 48 h. […]
In both treatments, after the 12-hour baseline period, normal saline (1 mL/kg/h) was infused to avoid hypovolemia. Urinary output was measured and urine sampled every 90 minutes. […]

angiotensin II (DRVYIHPF; Angiotensin-2; UniProt P01019 25-32, looked up) [Ang II, vasoconstricting agent with preferential action on the efferent arteriole of the glomerulus; acts at the AT-1 receptor]
return these variables to normal: renal blood flow (increased in sepsis) | mean arterial pressure (reduced in sepsis) | urine output (reduced in sepsis)
